The assay in a line: Biochemical Assay : 5 μl WT full length PAICS (final assay concentration, fac, 2.5 nM) in basic buffer, added to black, non-binding, 384-well plates (Corning #3575), columns 1 to 22. 5 μl basic buffer was added to columns 23+24 (negative control). PAICS stock at 31.9 μM from the PI's lab (Steve Firestine). Basic buffer contained 50 mM Tris-HCl pH8 and 0.5 mM EDTA, fac.1 μl compound in 100% DMSO added per well, or 1 μl 100% DMSO to positive controls (columns 1+2) and negative controls (columns 23+24). Final assay top concentration of compound either 1 mM or 30-μM, serially diluted with half-log dilutions across the plate in duplicate (one 10-point concentration response curve across wells 3 to 12, another across 13 to 22). Compounds pre-incubated with PAICS enzyme for 30 mins at RT. 2 μl CAIR added (fac 10 μM) in basic buffer plus 25 mM MgCl2 and 50 mM KHCO3 fac to all wells. CAIR stock 50 mM from Steve Firestine's lab. 1 hr RT incubation for AIR-CAIR equilibration. NB: ˜50% CAIR is decarboxylated during equilibration therefore 5 μM remains for the synthetase reaction.2 μl ATP/aspartic acid added (fac 30 μM/180 μM) in reaction buffer to all wells. 30 mins RT incubation for appropriate level of ATP turnover. […].

Broadly, the IC50 is the midpoint of a concentration-inhibition curve. As for `Nc1nc(C(=O)Nc2cc(N3CCN(C(=O)OCC4CNC4)CC3)ccc2Cl)co1`, the IC50 is above 0.1 µM.

The values above are taken from ChEMBL document CHEMBL5728360, “Oxazole derivatives for use in the treatment of cancer” (2021).
